The record followed here is patent US20260248131A1, “AGROCHEMICAL FORMULATIONS COMPRISING CRYSTALLINE FORM A OF 4-[(6-CHLORO-3-PYRIDYL-METHYL )(2,2-DIFL UOROETHYL )AMINO]FURAN-2(5H)-ONE” (BAYER AKTIENGESELLSCHAFT, priority 2022, published 2026).

In brackets after ≈: the same amount, converted by molar mass.

The nature of data set [1]: physchem. Format: physicochemical. As for the experimental part: The water solubility of FPF polymorph A and B was determined by saturating a certain amount of demineralized water with the respective polymorph, stirring the resulting saturated suspension overnight, filtering the undissolved solid residue, and measuring the dissolved concentration of FPF in the filtrate.

In data set [2] the test system is bird cherry-oat aphid Rhopalosiphum padi. The data set can be described thus: Systemic efficacy of FPF FS 480 as barley seed treatment against aphids. Format: in vivo. To be noted: seed treatment with FS 480. An excerpt: Physico-chemical properties are key drivers for systemic plant uptake and biological activity. To test the efficacy of different FPF modifications against the bird cherry-oat aphid Rhopalosiphum padi a sufficient number of barley seeds (variety “Scarlett”, thousand kernel weight: 43.6 g) were manually dressed with a defined amount of the Flupyradifurone FS480 formulated with 100% Form A, 100% Form B and a combination of 99% Form A and 1% Form B, respectively. Test concentrations were 0.15 g active ingredient per kg of seed (commercial dose rate in cereals) and 0.075 g active ingredient per kg of seed. Longitudinal boxes were filled with 5,900 g of a sandy loam soil (75.1% sand, 10.3% clay, 14.8% silt, 1.75% humus, pH 6.9) and 15 seeds per box were sown at spacing of approx. 2.5 cm and at depth of 3 cm. After sowing, boxes were watered to reach 50-70% of field capacity and covered with plastic foil until first plants were emerging. Aphid infestation was conducted at the second leaf stage by adding multiple pieces of infested leaf material to each test box. A second re-infestation was carried out at 3 days after the first infestation using methods described previously. The biological activity of tested FPF modifications was evaluated at 3 and 7 days after the initial infestation by a visual assessment of the colonized leaf area in comparison to the untreated and infested control. Results were expressed in percent efficacy. […] Growing conditions were at a constant temperature of 20° C., 50% relative humidity and 14 hours of illumination using sodium pressure lamps. The experiment comprised 3 replicates per treatment.

The solubility is the concentration that dissolves in the medium under given conditions.

On to `O=C1C=C(N(Cc2ccc(Cl)nc2)CC(F)F)CO1` [Polymorph B, 4-[(6-chloro-3-pyridylmethyl)(2,2-difluoroethyl)amino]furan-2(5H)-one, reference compound], for which the “Water Solubility” value in data set [1] is 3200 µg/mL.
With `O=C1C=C(N(Cc2ccc(Cl)nc2)CC(F)F)CO1` [Polymorph A, 4-[(6-chloro-3-pyridylmethyl)(2,2-difluoroethyl)amino]furan-2(5H)-one], in data set [1], the “reduced water solubility of FPF form A” value is given as 60%, the “water solubility compared with form B” value was “significantly lower than that of form B” and the “water solubility of polymorphic form A as share of that of polymorphic form B” value was 60%. Besides, in data set [1] (water, thermodynamic from solid, Water Solubility), the solubility turned out to be 2000 µg/mL (≈ 6.93 mM). For the same compound, in data set [2] (listed as FPF form A), the “systemic biological efficacy compared with form B” value is “does not lead to a reduced biological efficacy in comparison to FPF form B”. The “systemic biological efficacy compared with form B” value in data set [2] (listed as form A) was “not reduced”. In addition, the “systemic biological efficacy compared with form B” value in data set [2] (listed as polymorphic form A) is listed as “at the same level as that of polymorphic form B”.
